Laboratory results: paper PMC11023993, “Piperine, quercetin, and curcumin identified as promising natural products for topical treatment of cutaneous leishmaniasis” (Parasitology Research, 2024)
Like-named read-outs stand apart in the source and are kept apart here.

Assays:
[1] = MTT cytotoxicity assay in uninfected U-937 macrophages; settings: human
Protocol: U-937 (CRL-1593.2™) macrophages (ATCC, Manassas, VA, USA) were cultured in RPMI-1640 medium supplemented with 10% of FBS and incubated at 37 °C in 5% CO2, 95% humidity atmosphere. U-937 cells in the exponential growth phase were recovered, and washed by centrifugation at 1800 rpm for 10 min at room temperature; the pellet was then resuspended in supplemented RPMI 1640 medium and counted in a Neubauer chamber. The number was adjusted to 1 × 10^6 cells per mL and 100 µL was dispensed into each well of a 96-well plate. Then, another 100 µL of each serial dilution of QUE, PIP, CUR, doxorubicin, and amphotericin B was added to each well by triplicate and plates were incubated at 37 °C 5% CO2, 95% humidity atmosphere for 48 h.
The MTT solution is then added to the treated cells, where the yellow MTT is reduced to purple formazan by a variety of mitochondrial and cytosolic enzymes that are operational in viable cells. After 3 h of incubation with MTT, the formazan precipitates. Consequently, the growing medium was removed, the formazan was dissolved in DMSO, and the absorbance of the solution was measured at 570 nm using a microplate reader spectrophotometer (Varioskan Flash, Thermo Fisher Scientific).
Cells exposed to the standard cytotoxic drug doxorubicin were used as an internal control for toxicity (positive control) while cells incubated in the absence of any compound or drug were used as a control for viability (negative control). A solution of 0.5% DMSO was used as a blank solution. Non-specific absorbance was corrected by subtracting absorbance (OD) of the blank. Determinations were done by triplicate in at least two independent experiments.
The OD of viable cells that remained after treatment was compared to the OD of control cells that were not exposed to the drug. The LC50 (median lethal concentration) values and their statistical errors were calculated based on triplicates of the measurement in the independent assays. The LC50 values were determined by non-linear regression using Prism GraphPad 10.
(§1) The LC50 and the EC50 were calculated by Probit analysis using GraphPad Prism 10 (San Diego, CA, USA). Both cytotoxicity and leishmanicidal activity were defined by ranges of values of LC50 and EC50 in terms of high, moderate, or low as follows: high cytotoxicity for LC50 values < 100 µM, moderate cytotoxicity for LC50 values > 100 µM but < 200 µM, and low cytotoxicity for LC50 values > 200 µM. […] In addition, the cytotoxicity in U937 macrophages was correlated with the leishmanicidal activity by calculating the Selectivity Index (SI), using the equation: SI = LC50/EC50 (Indrayanto et al. [2021]).

[2] = tested on: L. major; set-up: method as in Almadani et al. [2021]; settings: oral 50 mg/kg for 28 consecutive days; ref Almadani et al. [2021]; cited from earlier work
[3] = tested on: intracellular amastigotes of L. braziliensis; assay: In vitro leishmanicidal activity against intracellular amastigotes in infected U-937 macrophages (flow cytometry); assay type: cell-based, Leishmania braziliensis; settings: for EC50: Leishmania braziliensis
Protocol: Infective L. braziliensis (MHOM/CO/88/UA301-eGFP) (Pulido et al. [2012]) were cultured in Novy-MacNeal-Nicolle (NNN) biphasic medium at 26 °C for 3 passages maximum. U-937 cells, prepared as described in the previous section, were adjusted to approximately 3 × 10^5 cells per mL of supplemented RPMI 1640 medium containing […] of PMA to induce cell adherence. One mL was dispensed into each well of a 24-well plate and platters were incubated at 37 °C in % CO2, 95% humidity atmosphere for 72 h. Then, adherent cells were infected with fluorescent promastigotes of L. braziliensis in a 15:1 parasite to cell ratio. Plates were incubated again at 34 °C and % CO2, 95% humidity atmosphere. After 24 h, non-phagocytosed parasites were washed by pipetting phosphate buffered solution (PBS) in the plate at room temperature and 500 µL of fresh complete RPMI 1640 medium was added. Then, 500 µL of each serial dilution of QUE, PIP, CUR, and amphotericin B was added to each well and plates were incubated at 34 °C with % CO2, 95% humidity atmosphere. The EC50, the median effective concentration to induce […] killing of the intracellular amastigotes in infected cells, was measured by Flow cytometry at 488 nm of excitation and 525 nm of emission. After 48 h of incubation, cells were harvested with cold dissociation buffer (1x PBS with 2% EDTA) and the harvested cells were washed with buffer (1 × PBS with 2% FBS), and results were analyzed by FlowJo 10. The EC50 was determined with a non-lineal regression using Prism GraphPad 10.
as §1

[4] = tested on: macrophages; set-up: method as in Dos Santos et al. [2022]; settings: ref Dos Santos et al. [2022], cited from earlier work
[5] = tested on: L. braziliensis-induced cutaneous leishmaniasis ulcers; assay: Histopathological analysis (H-E) of healed ulcers from treated hamsters; assay type: in vivo, golden hamsters (Mesocricetus auratus); set-up: key to Dermis: oedema (grade) / Dermis: granulomatous inflammation (grade) / Epidermis: orthokeratotic hyperkeratosis (grade) / Epidermis: spongiosis (grade) / Epidermis: ulcer (grade) / Dermis: neovascularization (grade) / Dermis: fibroplasia (grade) / Dermis: leukocytic infiltrate (grade): 0, absent; 1, mild; 2, mild to moderate; 3, moderate; 4, moderate to severe; 5, severe
Protocol: The changes were analyzed under a standard optical microscope.

[6] = tested on: L. braziliensis; set-up: method as in Dos Santos et al. [2022]; settings: oral 20 mg/kg five times a week, from 7 days after infection for 8 weeks; ref Dos Santos et al. [2022]; cited from earlier work
[7] = tested on: L. braziliensis amastigotes; set-up: method as in Dos Santos et al. [2022]; settings: ref Dos Santos et al. [2022], read-out: antiamastigote activity EC50; cited from earlier work
[8] = healed ulcer after topical treatment

O=c1c(O)c(-c2ccc(O)c(O)c2)oc2cc(O)cc(O)c12 [Quercetin, quercetin]
CC50 at 48 h [1]: > 662 µM | histopathological analysis of tissue sections [2]: reduction in inflammatory cell count, an increase in fibroblasts, and enhanced collagen deposition | SI (Selectivity Index = LC50/EC50) ([3]; LC50 U-937 / EC50 L. braziliensis amastigotes): > 20.6 | EC50 ([3]; U-937, amastigote stage of L. braziliensis, read-out: in vitro antileishmanial activity (EC50 in mass units)): 9.7 ± 0.6 µg/mL | EC50 ([3]; intracellular amastigotes of L. braziliensis in U-937 macrophages, 48 h, read-out: EC50 (Median Effective Concentration)): 32 ± 2 µM | Leishmanicidal activity ([3]; class by EC50 on intracellular amastigotes of L. braziliensis): High (high activity corresponds to EC50 values < 50 µM) | concentration giving substantial decrease in macrophage viability [4]: exceeding 640 µM | EC50 ([4]; read-out: macrophage viability, estimated EC50): 478 ± 89 µM | granulomas and amastigotes in healed skin ([5]; H-E stain, healed skin after topical treatment): No amastigotes are observed | Dermis: fibroplasia (grade) [5, 8]: 3 | Dermis: granulomatous inflammation (grade) [5, 8]: 0 | Dermis: leukocytic infiltrate (grade) [5, 8]: 3 | Dermis: neovascularization (grade) [5, 8]: 2 | Dermis: oedema (grade) [5, 8]: 2 | Epidermis: orthokeratotic hyperkeratosis (grade) [5, 8]: 2 | Epidermis: spongiosis (grade) [5, 8]: 2 | Epidermis: ulcer (grade) [5, 8]: 0 | lesion size and parasite load (lesion and draining lymph node) [6]: effectively controlled the lesion size and reduced the parasite load | EC50 [7]: 21 ± 2.5 µM
